Measurements as given in patent publication US7279598B2, “Process for separating and recovering 3-hydroxypropionic acid and acrylic acid” (priority 2003, dated 2007).

Assay: Extraction of acrylic acid and 3-hydroxypropionic acid from aqueous stock solutions by ethyl acetate (partition between ethyl acetate and aqueous phase)
Assay type: physicochemical
Details: for Partition coefficient, D, average number of partition coefficients listed in Table 2: ethyl acetate / aqueous phase, average over the five stock solutions; for Partition Coefficient, D: ethyl acetate extractant phase / aqueous phase, 22° C.; for Separation Factor, S AA/3HP: partition coefficient of AA divided by that of 3HP
Experimental: The aqueous stock solutions comprise 30% 3-hydroxypropionic acid aqueous solution and 99% acrylic acid.
1. To a 15 ml centrifuge tube 5 ml of each acid stock solution and ethyl acetate extractant were added.
2. […] (rpm designates revolutions per minute).
4. The volumes of the aqueous and ethyl acetate extractant phases in the tubes were recorded.
The processing conditions and experimental results for the extraction of acrylic acid (AA) and 3-hydroxypropionic acid (3HP) by ethyl acetate are reported in the following Table 2.

[1] = Aqueous Stock Solution No. 1 (0.67 wt % AA, 1.34 wt % 3HP)
[2] = Aqueous Stock Solution No. 2 (3.33 wt % AA, 6.67 wt % 3HP)
[3] = Aqueous Stock Solution No. 3 (6.67 wt % AA, 13.34 wt % 3HP)
[4] = Aqueous Stock Solution No. 4 (9.99 wt % AA, 19.98 wt % 3HP)
[5] = Aqueous Stock Solution No. 5 (12.51 wt % AA, 25.05 wt % 3HP)

C=CC(=O)O [AA, acrylic acid]
Partition coefficient, D, average number of partition coefficients listed in Table 2: 2.572
Partition Coefficient, D [1]: 2.96
Partition Coefficient, D [2]: 2.97
Partition Coefficient, D [3]: 2.66
Partition Coefficient, D [4]: 2.36
Partition Coefficient, D [5]: 1.91
Separation Factor, S AA/3HP (Aqueous Stock Solution No. 1): 16.55
Separation Factor, S AA/3HP (Aqueous Stock Solution No. 2): 14.18
Separation Factor, S AA/3HP (Aqueous Stock Solution No. 3): 9.79
Separation Factor, S AA/3HP (Aqueous Stock Solution No. 4): 7.81
Separation Factor, S AA/3HP (Aqueous Stock Solution No. 5): 4.66

O=C(O)CCO [3HP, 3-hydroxypropionic acid]
Partition coefficient, D, average number of partition coefficients listed in Table 2: 0.274
Partition Coefficient, D [1]: 0.18
Partition Coefficient, D [2]: 0.21
Partition Coefficient, D [3]: 0.27
Partition Coefficient, D [4]: 0.30
Partition Coefficient, D [5]: 0.41
